From the supplement of paper PMC10307832

What was measured:
Assay in all cases: relative viability (nuclei count vs DMSO), 5 days (fraction); higher = more cells survive
AT9283 + Luminespib = compound: O=C(Nc1c[nH]nc1-c1nc2ccc(CN3CCOCC3)cc2[nH]1)NC1CC1 [AT9283] + CCNC(=O)c1noc(-c2cc(C(C)C)c(O)cc2O)c1-c1ccc(CN2CCOCC2)cc1 [Luminespib] (partner 0.01 µM)
Procedure, shortened: (§1)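 Relative viability divides the nuclei count in treated wells by that in vehicle wells. Lung cancer cell lines were seeded in 1536-well plates, dosed by pin tool the next day, and fixed and stained after 5 days in one step with final 0.05% Triton X-100, 1% formaldehyde and 1 ug/ml Hoechst. Dosing was a single drug or a fixed anchor-drug dose plus five library-drug doses (not always all listed) in √10 steps, and values are medians of duplicate plates imaged at 4×.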

AT9283 + Bortezomib = compound: O=C(Nc1c[nH]nc1-c1nc2ccc(CN3CCOCC3)cc2[nH]1)NC1CC1 [AT9283] + CC(C)C[C@H](NC(=O)[C@H](Cc1ccccc1)NC(=O)c1cnccn1)B(O)O [Bortezomib] (partner 0.002 µM)
Procedure, shortened: as §1

AT9283 + Foretinib = compound: O=C(Nc1c[nH]nc1-c1nc2ccc(CN3CCOCC3)cc2[nH]1)NC1CC1 [AT9283] + COc1cc2c(Oc3ccc(NC(=O)C4(C(=O)Nc5ccc(F)cc5)CC4)cc3F)ccnc2cc1OCCCN1CCOCC1 [Foretinib] (partner 0.25 µM)
Procedure, shortened: as §1

AT9283 + Dasatinib = compound: O=C(Nc1c[nH]nc1-c1nc2ccc(CN3CCOCC3)cc2[nH]1)NC1CC1 [AT9283] + Cc1nc(Nc2ncc(C(=O)Nc3c(C)cccc3Cl)s2)cc(N2CCN(CCO)CC2)n1 [Dasatinib] (partner 0.075 µM)
Procedure, shortened: as §1

Erlotinib + Bortezomib = compound: C#Cc1cccc(Nc2ncnc3cc(OCCOC)c(OCCOC)cc23)c1 [Erlotinib] + CC(C)C[C@H](NC(=O)[C@H](Cc1ccccc1)NC(=O)c1cnccn1)B(O)O [Bortezomib] (partner 0.002 µM)
Procedure, shortened: as §1

Row | Cell Line | relative viability (AT9283 + Luminespib; first compound 0.003 µM) | relative viability (AT9283 + Luminespib; first compound 0.03 µM) | relative viability (AT9283 + Luminespib; first compound 0.09487 µM) | relative viability (AT9283 + Luminespib; first compound 0.3 µM) | relative viability (AT9283 + Bortezomib; first compound 0.003 µM) | relative viability (AT9283 + Bortezomib; first compound 0.03 µM) | relative viability (AT9283 + Bortezomib; first compound 0.09487 µM) | relative viability (AT9283 + Bortezomib; first compound 0.3 µM) | relative viability (AT9283 + Foretinib; first compound 0.003 µM) | relative viability (AT9283 + Foretinib; first compound 0.03 µM) | relative viability (AT9283 + Foretinib; first compound 0.09487 µM) | relative viability (AT9283 + Foretinib; first compound 0.3 µM) | relative viability (AT9283 + Dasatinib; first compound 0.003 µM) | relative viability (AT9283 + Dasatinib; first compound 0.03 µM) | relative viability (AT9283 + Dasatinib; first compound 0.09487 µM) | relative viability (AT9283 + Dasatinib; first compound 0.3 µM) | relative viability (Erlotinib + Bortezomib; first compound 0.02 µM) | relative viability (Erlotinib + Bortezomib; first compound 0.2 µM) | relative viability (Erlotinib + Bortezomib; first compound 0.6325 µM) | relative viability (Erlotinib + Bortezomib; first compound 2 µM)
1 | LCLC-103H | 0.829 | 0.755 | 0.313 | 0.304 | 1.08 | 0.935 | 0.641 | 0.538 | 0.737 | 0.732 | 0.258 | 0.219 | 0.433 | 0.486 | 0.428 | 0.296 | 1.16 | 1.2 | 1.1 | 0.992
2 | LOU-NH91 | 0.321 | 0.353 | 0.358 | 0.32 | 0.436 | 0.447 | 0.438 | 0.389 | 0.913 | 0.887 | 0.548 | 0.375 | 0.524 | 0.562 | 0.366 | 0.296 | 0.525 | 0.497 | 0.484 | 0.458
3 | LU99A | 0.24 | 0.301 | 0.225 | 0.221 | 1.04 | 0.463 | 0.162 | 0.229 | 0.751 | 0.34 | 0.233 | 0.237 | 0.546 | 0.195 | 0.229 | 0.247 | 1.34 | 1.1 | 1.24 | 0.899
4 | LXF-289 | 0.731 | 0.742 | 0.326 | 0.144 | 0.972 | 0.992 | 0.184 | 0.131 | 1 | 0.571 | 0.225 | 0.109 | 0.227 | 0.106 | 0.0281 | 0.029 | 0.964 | 0.999 | 0.921 | 0.857
5 | NCI-H23 | 0.216 | 0.234 | 0.204 | 0.167 | 0.852 | 1.01 | 0.557 | 0.236 | 0.985 | 0.717 | 0.412 | 0.32 | 0.726 | 0.67 | 0.464 | 0.327 | 0.915 |  | 1.32 | 0.917
6 | NCI-H322M | 0.864 | 0.541 | 0.405 | 0.41 | 1.25 | 1.34 | 0.861 | 0.407 | 0.958 | 0.544 | 0.41 | 0.462 | 0.257 | 0.236 | 0.224 | 0.223 | 1.21 | 1.17 | 1.12 | 0.57
7 | NCI-H460 | 0.0366 | 0.041 | 0.0309 | 0.0299 | 0.922 | 0.905 | 0.257 | 0.032 | 0.983 | 0.907 | 0.184 | 0.0594 | 0.395 | 0.495 | 0.265 | 0.0688 | 1.09 | 1.12 | 1.52 | 1.09
8 | NCI-H520 | 0.247 | 0.23 | 0.204 | 0.254 | 0.574 | 0.241 | 0.182 | 0.168 | 0.95 | 0.326 | 0.337 | 0.295 | 0.2 | 0.174 | 0.147 | 0.145 | 0.75 | 0.261 | 0.722 | 0.455
9 | NCI-H596 | 1.04 | 1.08 | 0.819 | 0.725 | 0.999 | 1.14 | 0.947 | 0.772 | 0.813 | 0.822 | 0.744 | 0.59 | 0.59 | 0.597 | 0.565 | 0.297 | 1.01 | 0.993 | 1.09 | 0.93
10 | NCI-H647 | 0.152 | 0.201 | 0.169 | 0.183 | 0.822 | 0.145 | 0.13 | 0.0938 | 1.41 | 0.396 | 0.273 | 0.202 | 0.15 | 0.114 | 0.036 | 0.0661 | 1.05 | 0.961 | 1.36 | 0.795
11 | NCI-H650 | 0.771 | 0.701 | 0.242 | 0.173 | 0.652 | 0.775 | 0.561 | 0.14 | 1.08 | 0.958 | 0.332 | 0.154 | 0.425 | 0.433 | 0.219 | 0.175 | 0.749 | 0.88 | 0.958 | 
12 | NCI-H661 | 0.916 | 0.399 | 0.304 | 0.313 | 0.779 | 0.531 | 0.338 | 0.346 | 1.01 | 0.472 | 0.384 | 0.364 | 0.862 | 0.355 | 0.307 | 0.26 | 0.887 | 0.555 | 0.881 | 0.646
13 | NCI-H727 | 0.253 | 0.257 | 0.261 | 0.281 | 0.824 | 0.508 | 0.351 | 0.306 | 0.689 | 0.649 | 0.437 | 0.331 | 0.423 | 0.467 | 0.314 | 0.245 | 0.785 | 0.844 | 1 | 0.701
14 | NCI-H838 | 0.341 | 0.232 | 0.203 | 0.22 | 0.777 | 0.228 | 0.184 | 0.231 | 1.05 | 0.427 | 0.262 | 0.281 | 0.302 | 0.255 | 0.222 | 0.188 | 0.8 | 0.491 | 1.18 | 0.694
15 | NCI-H1355 | 0.6 | 0.702 | 0.375 | 0.239 | 1.15 | 1.13 | 1.23 | 0.287 | 0.871 | 0.952 | 0.582 | 0.272 | 0.634 | 0.727 | 0.296 | 0.273 | 1.14 | 1.1 | 1.24 | 0.992
16 | NCI-H1437 | 1.26 | 1.12 | 0.681 | 0.344 | 0.496 | 0.398 | 0.175 | 0.164 | 1.33 | 0.974 | 0.533 | 0.323 | 0.342 | 0.379 | 0.224 | 0.114 | 0.482 | 0.499 | 0.57 | 0.393
